# From patent US10738061B2, “Inhibitors of RAD52 recombination protein and methods using same” (Drexel University, priority 2015, dated 2020)
# What was measured:
# salmon sperm DNA = assay: Acridine orange displacement assay for DNA binding
# Experimental: The selected compounds were tested their abilities to bind DNA to rule out DNA binding as an undesired mechanism of action. The compounds in varied concentrations were added into 30 μl reaction mixtures containing 50 nM acridine orange and 6 μg/ml salmon sperm DNA, 10 mM HEPES, pH 7.5; 1 mM EDTA pH 7.5; 100 mM NaCl in 384-well plates, and the reactions were incubated at room temperature for 20 min followed by fluorescence polarization measurement using an EnVision (Perkin Elmer) equipped with a 480 nm excitation filter and 535 nm S and P emission filters with a D505 FP/D535 dichroic mirror. Mitoxantrone (10 μM) was used as a positive control. The S and P values are processed with the standard fluorescence polarization calculation formula (mP=1000*(S-G*P)/(S+G*P) where G is the G-factor and is approximately 1.
# [1] = tested on: BRCA1/2-deficient cell lines; assay: Growth of BRCA1/2-deficient cell lines (summary over tested lines); type: cell-based, Human
# Experimental: (§1) BxPC3 cells were kept in RPMI 1640 (ATCC) media supplemented with 10% FBS (Gibco). Capan-1/BxPC3 Capan-1 cells were kept in IMDM (ATCC) media containing 20% FBS (GIBCO). […] cells were kept in 48.5% RPMI1640 (ATCC), 48.5% MEGM (Clonetics/Lonza, MEGM kit, CC-3150) and 3% FBS (GIBCO) respectively. Cells in log-phase were harvested and 100 μl cell suspensions were replated in a 96-well plate with a final density of 4000 cells/well. After overnight growth, cells were treated with indicated concentrations of compounds. Media containing the invariant concentration of compounds were refreshed every 3 days until cells were finally lysed by 30 μl/well of Promega CellTiter-Glo reagents and read on a Promega GloMax 96 reader on day 10 (9 days exposure).
# as §1, with “(Gibco);” for “(Gibco). Capan-1/BxPC3”, “(GIBCO);” for “(GIBCO).”, “exposure). Promega CellTiter-Glo protocol is available on the web: www dot promega dot com/resources/protocols/technical-bulletins/0/celltiter-glo-luminescent-cell-viability-assay-protocol/” for “exposure).”
# MDA-MB-436 cells were cultured in RPMI+10% FBS. BRCA-proficient and BRCA-deficient cells were plated on day 0 in triplicate at 5,000 cells/well. […] Cells were counted on day 4 on a hemocytometer, using Trypan Blue exclusion, and immediately were plated in a clonogenic assay at a density of 500 cells/well in a 6 well plate, in RPMI+10% FBS. […]
# [2] = tested on: BCR-ABL1-positive BRCA1-deficient 32Dc13 murine hematopoietic cell line that expresses GFP-RAD52; assay: GFP-RAD52 foci formation in response to cisplatin; type: cell-based; details: compound 2.5 μM
# Experimental: GFP-RAD52 foci formation was measured in BCR-ABL1-positive BRCA1-deficient 32Dc13 murine hematopoietic cell line that expresses GFP-RAD52 (Cramer-Morales et al., 2013, Blood 122, 1293-1304). RAD51 foci formation was measured in parental 32Dc13.
# Both cell lines were cultured in IMDM plus 10% FBS. […] After 4 h of incubation, the cells were treated with 3 μg/mL cisplatin for 16 h. Following cisplatin treatment, cytospins were prepared using polylysine coated slides (Thermo Scientific). DNA was counterstained with DAPI. To detect RAD51 foci, cells were stained with an anti-RAD51 antibody (Thermo Scientific), followed by a secondary antibody conjugated with AlexaFluor 594. RAD51 and GFP-RAD52 foci were visualized with an inverted Olympus IX70 fluorescence microscope equipped with a Cooke Sensicam QE camera (The Cooke Co., Auburn Hills, Mich., USA). Images from 25-60 cells/group were processed using SlideBook 3.0 (Intelligent Imaging Innovation).
# In response to DNA damage, RAD52 accumulates in the nucleus forming distinct structures known as foci (Essers et al., 2002, EMBO J. 21, 2030-2037; Liu et al., 2000, EMBO Rep 1, 85-90). The foci represent RAD52 complexes with DNA repair intermediates. Inhibitors of RAD52 may decrease RAD52 foci formation by disrupting its interaction with DNA substrates.
compound,measurement,setting,value
"COc1ccc(OC)c(Nc2nc(NCCCO)c3ccccc3n2)c1 [D-G23, 3-((2-((2,5-dimethoxyphenyl)amino)quinazolin-4-yl)amino)propan-1-ol]",DNA binding,salmon sperm DNA,did not bind DNA
same,preferential inhibition of BRCA1/2-deficient cell lines (summary),[1],preferentially inhibited at least two BRCA1/2-deficient cell lines
same,fraction of cells with RAD52 foci (>5 foci),"[2]; cisplatin-treated, without inhibitor 38.7±10%",19±0.4%
same,fraction of cisplatin-treated cells without foci,[2]; without inhibitor 48.4±6.2%,57.6±0.5%
